Data from PubChem BioAssay (NCI).
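Interpolation was linear, between the two tested concentrations surrounding the appropriate level; five concentrations were tested over 48 hours in 96-well plates. GI50 is the concentration that inhibits growth by half. Definition used: TGI = concentration required for complete inhibition of growth.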 Where a SMILES comes first, the peptide text is derived from it. The star is where a group is joined. Boc = CC(C)(C)OC(=O)*

Tests used:
Test in all cases: growth of human tumour cells (NCI), 48 h
A498 renal = test system: A498 renal
COLO 205 colon = test system: COLO 205 colon
OVCAR-5 ovarian = test system: OVCAR-5 ovarian
A549 NSCLC = test system: A549 NSCLC
MALME-3M melanoma = test system: MALME-3M melanoma
SN12C renal = test system: SN12C renal
SR leukemia = test system: SR leukemia
SNB-75 CNS = test system: SNB-75 CNS
786-0 renal = test system: 786-0 renal
NCI-H522 lung = test system: NCI-H522 lung
HS 578T breast = test system: HS 578T breast

COc1ccc(-c2cc3[nH]nc(N)c3c(=O)o2)cc1
TGI (A498 renal): > 100 µM
TGI (COLO 205 colon): > 100 µM
TGI (OVCAR-5 ovarian): > 100 µM
TGI (A549 NSCLC): > 100 µM
TGI (MALME-3M melanoma): > 100 µM
TGI (SN12C renal): > 100 µM
TGI (SR leukemia): > 100 µM
TGI (SNB-75 CNS): > 100 µM

COc1ccc2nc(-c3ccc(O)cc3)sc2c1
TGI (786-0 renal): 29.1 µM
TGI (A498 renal): 85.7 µM
TGI (COLO 205 colon): 44.6 µM
TGI (OVCAR-5 ovarian): 31.6 µM
TGI (A549 NSCLC): > 100 µM
TGI (NCI-H522 lung): 31.2 µM
TGI (MALME-3M melanoma): 51.6 µM
TGI (SN12C renal): 39.5 µM
TGI (SR leukemia): 22.5 µM

BrC(c1cccc2ccccc12)c1cccc2ccccc12
TGI (786-0 renal): 28.2 µM
TGI (A498 renal): 31.4 µM
TGI (OVCAR-5 ovarian): 84.9 µM
TGI (A549 NSCLC): > 100 µM
TGI (NCI-H522 lung): 32.3 µM
TGI (MALME-3M melanoma): 21.1 µM
TGI (SN12C renal): 27.4 µM
TGI (SR leukemia): > 100 µM
TGI (SNB-75 CNS): 29.1 µM

COC(=O)C(Cc1c[nH]c2ccccc12)NC(=O)C(Cc1c[nH]c2ccccc12)NC(=O)C(Cc1c[nH]c2ccccc12)NC(=O)C(Cc1c[nH]c2ccccc12)NC(=O)C(Cc1c[nH]c2ccccc12)NC(=O)C(Cc1c[nH]c2ccccc12)NC(=O)C(Cc1c[nH]c2ccccc12)NC(=O)C(Cc1c[nH]c2ccccc12)NC(=O)OC(C)(C)C (stereo unspecified) (Boc-WWWWWWWW-OMe; configuration not given here)
TGI (786-0 renal): > 100 µM
TGI (A498 renal): 55.6 µM
TGI (OVCAR-5 ovarian): > 100 µM
TGI (A549 NSCLC): > 100 µM
TGI (NCI-H522 lung): 60.3 µM
TGI (MALME-3M melanoma): > 100 µM
TGI (SN12C renal): > 100 µM
TGI (SR leukemia): > 100 µM
TGI (SNB-75 CNS): > 100 µM

COc1cc(Cc2nccc3cc(OC)c(OC)cc23)c(N=NN(C)C)cc1OC
TGI (786-0 renal): 18.6 µM
TGI (COLO 205 colon): 33.8 µM
TGI (OVCAR-5 ovarian): 40.9 µM
TGI (A549 NSCLC): 77.2 µM
TGI (MALME-3M melanoma): 38.4 µM
TGI (SN12C renal): 41.3 µM
TGI (SNB-75 CNS): > 100 µM
TGI (HS 578T breast): 86.5 µM

Cn1cc2ccccc2c1-c1nc(F)nc(OCC(=O)[C@H]2CCC3[C@@H]4CCC5=CC(=O)CC[C@]5(C)C4[C@@H](O)C[C@@]32C)n1 (stereo partly specified)
TGI (786-0 renal): 30.5 µM
TGI (A498 renal): > 54 µM
TGI (COLO 205 colon): 40.1 µM
TGI (OVCAR-5 ovarian): > 73.7 µM
TGI (A549 NSCLC): > 77.8 µM
TGI (NCI-H522 lung): 31.2 µM
TGI (MALME-3M melanoma): 33.8 µM
TGI (SN12C renal): 30.8 µM
TGI (SR leukemia): 12.8 µM
TGI (SNB-75 CNS): 35.2 µM

Cc1cc(S(=O)(=O)Nc2nc3ccccc3c(=O)n2N)c(S)cc1Cl
TGI (786-0 renal): 81.6 µM
TGI (COLO 205 colon): > 100 µM
TGI (OVCAR-5 ovarian): > 100 µM
TGI (A549 NSCLC): > 100 µM
GI50 (NCI-H522 lung): 19 µM
TGI (NCI-H522 lung): 50.7 µM
TGI (MALME-3M melanoma): 56.9 µM
TGI (SN12C renal): > 100 µM
GI50 (SNB-75 CNS): 13.3 µM
TGI (SNB-75 CNS): 92.7 µM

COC(=O)c1c2cccccc-2c(Cc2c3cccccc-3c(C(=O)OC)c2O)c1O
TGI (786-0 renal): > 100 µM
TGI (A498 renal): > 100 µM
TGI (COLO 205 colon): > 100 µM
TGI (OVCAR-5 ovarian): > 100 µM
TGI (A549 NSCLC): > 100 µM
TGI (NCI-H522 lung): > 100 µM
TGI (MALME-3M melanoma): > 100 µM
TGI (SN12C renal): > 100 µM
TGI (SR leukemia): > 100 µM
TGI (SNB-75 CNS): > 100 µM

Nc1nc2c3nc(Nc4ccccc4)sc3nc(=O)n2c2sc(Nc3ccccc3)nc12
TGI (786-0 renal): > 100 µM
TGI (A498 renal): > 100 µM
TGI (COLO 205 colon): > 100 µM
TGI (A549 NSCLC): > 100 µM
TGI (NCI-H522 lung): > 100 µM
TGI (MALME-3M melanoma): > 100 µM
TGI (SN12C renal): > 100 µM
TGI (SR leukemia): > 100 µM
TGI (SNB-75 CNS): > 100 µM

CCN1CCC(O)(c2ccc(Cl)cc2)C(C(=O)c2ccc(Cl)cc2)C1 (stereo unspecified)
TGI (786-0 renal): > 100 µM
TGI (A498 renal): > 100 µM
TGI (COLO 205 colon): > 100 µM
TGI (OVCAR-5 ovarian): > 100 µM
TGI (A549 NSCLC): > 100 µM
TGI (NCI-H522 lung): 41.9 µM
TGI (SN12C renal): > 100 µM
TGI (SR leukemia): > 100 µM
TGI (SNB-75 CNS): > 100 µM

O=C(NNC(=S)NC1CCCCC1)c1csc(NC(=S)NC2CCCCC2)n1
TGI (786-0 renal): 19.9 µM
TGI (A498 renal): 36.3 µM
TGI (COLO 205 colon): 14.1 µM
TGI (OVCAR-5 ovarian): 40.1 µM
TGI (A549 NSCLC): 23.3 µM
TGI (NCI-H522 lung): 28.2 µM
TGI (MALME-3M melanoma): 26 µM
TGI (SN12C renal): 25.9 µM
TGI (SR leukemia): > 100 µM

Cc1cc2c([nH]c3ccccc32)c2c1OC(C)(C)C1C3CC(C)(C)Oc4c(C)cc5c6ccccc6n(c5c43)C21 (stereo unspecified)
TGI (786-0 renal): > 100 µM
TGI (A498 renal): > 100 µM
TGI (COLO 205 colon): > 100 µM
TGI (OVCAR-5 ovarian): > 100 µM
TGI (A549 NSCLC): > 100 µM
TGI (NCI-H522 lung): > 100 µM
TGI (MALME-3M melanoma): > 100 µM
TGI (SN12C renal): > 100 µM
TGI (SR leukemia): > 100 µM
TGI (SNB-75 CNS): > 100 µM

CCC(C#N)NCc1cccc(CNC(C#N)CC)c1 (stereo unspecified)
TGI (786-0 renal): > 100 µM
TGI (A498 renal): > 100 µM
TGI (COLO 205 colon): > 100 µM
TGI (OVCAR-5 ovarian): 34.2 µM
TGI (A549 NSCLC): > 100 µM
TGI (NCI-H522 lung): > 100 µM
TGI (MALME-3M melanoma): > 100 µM
TGI (SN12C renal): > 100 µM
TGI (HS 578T breast): > 100 µM

COc1ccc(SCc2cc(OCc3ccccc3)c(OCc3ccccc3)c(OCc3ccccc3)c2)cc1
TGI (786-0 renal): 2.89 µM
TGI (A498 renal): 3.49 µM
TGI (COLO 205 colon): 8.21 µM
TGI (OVCAR-5 ovarian): 3.4 µM
TGI (A549 NSCLC): 3.71 µM
TGI (NCI-H522 lung): 3.37 µM
TGI (MALME-3M melanoma): 3.37 µM
TGI (SN12C renal): 3.49 µM
TGI (SNB-75 CNS): 3 µM

CC1(C)C2C=CC1C(=O)CC2 (stereo unspecified)
TGI (786-0 renal): > 100 µM
TGI (A498 renal): > 100 µM
TGI (OVCAR-5 ovarian): > 100 µM
TGI (A549 NSCLC): > 100 µM
TGI (NCI-H522 lung): > 100 µM
TGI (MALME-3M melanoma): > 100 µM
TGI (SNB-75 CNS): > 100 µM

O=C1c2ccc(O)c(O)c2C(=O)c2c(O)ccc(O)c21
TGI (786-0 renal): > 100 µM
TGI (A498 renal): 53.8 µM
TGI (COLO 205 colon): 48.5 µM
TGI (OVCAR-5 ovarian): 76.5 µM
TGI (A549 NSCLC): 50.3 µM
TGI (NCI-H522 lung): 3.03 µM
TGI (SN12C renal): 56.7 µM
TGI (SR leukemia): 93.7 µM

CCN(CC)C(=O)C(C)n1cc(C)c(=O)[nH]c1=O (stereo unspecified)
TGI (786-0 renal): > 100 µM
TGI (COLO 205 colon): > 100 µM
TGI (OVCAR-5 ovarian): > 100 µM
TGI (A549 NSCLC): > 100 µM
TGI (NCI-H522 lung): > 100 µM
TGI (MALME-3M melanoma): > 100 µM
TGI (SN12C renal): > 100 µM
TGI (SNB-75 CNS): 98.6 µM
